BigSolDB 2.1

Cc1cc(Cl)cc(C(=O)O)c1N
solubility (mole fraction)
Details | 278.15 K | 283.15 K | 288.15 K | 293.15 K | 298.15 K | 303.15 K | 308.15 K | 313.15 K | 318.15 K | 323.15 K
in acetone | 0.0119 | 0.0131 | 0.0152 | 0.0175 | 0.0199 | 0.0227 | 0.0266 | 0.0315 | 0.0371 | 0.0436
in acetonitrile | 0.00122 | 0.00126 | 0.00139 | 0.00154 | 0.00173 | 0.00198 | 0.0023 | 0.0027 | 0.00331 | 0.00423
in ethanol | 0.00708 | 0.00736 | 0.00758 | 0.00807 | 0.00867 | 0.00934 | 0.0103 | 0.0114 | 0.0129 | 0.0144
in ethyl acetate | 0.00636 | 0.0067 | 0.0071 | 0.00769 | 0.00829 | 0.00933 | 0.0105 | 0.012 | 0.0138 | 0.0162
in isopropanol | 0.00728 | 0.00744 | 0.0077 | 0.00809 | 0.00856 | 0.00911 | 0.00977 | 0.0105 | 0.0114 | 0.0123
in methanol | 0.00128 | 0.00157 | 0.00199 | 0.00241 | 0.00305 | 0.00375 | 0.00452 | 0.00556 | 0.00672 | 0.00815
in n-butanol | 0.00553 | 0.0057 | 0.00609 | 0.00648 | 0.00729 | 0.0082 | 0.00931 | 0.0109 | 0.0131 | 0.016
in n-hexane | 0.000105 | 0.000166 | 0.000245 | 0.000343 | 0.000443 | 0.000558 | 0.000685 | 0.000821 | 0.000959 | 0.00113
in n-propanol | 0.00516 | 0.00552 | 0.00579 | 0.00646 | 0.0072 | 0.00803 | 0.00936 | 0.0109 | 0.0128 | 0.0153
